Results on one sequence are retold here after patent US8309140B2, “Effect of porcine sheath proteins on the regeneration activity of periodontal ligament” (priority 2005, dated 2012).

Assay [1] has as its system osteopontin, osteocalcin and bone sialoprotein expression in HPDL cells. Kind of assay: Semi-quantitative PCR of mineralized tissue markers in cultured HPDL cells. Type of assay: cell-based, human. The note with it: 4, 14 and 28 d cultured HPDL cells; H-2 25 μg/mL; TGF-β1 1 ng/mL. An excerpt:
Total RNA was extracted using RNAzol™ B from cultured HPDL cells. […] The PCR primers were designed based upon the Homo sapiens mRNA sequences. The primer pairs were as follows: osteopontin, 5′-[…]-3′ (SEQ ID NO: 45) and 5′-[…] TGAA-3′ (SEQ ID NO: 46) (301 bp); osteocalcin, 5′-[…]-3′ (SEQ ID NO: 47) and 5′-[…] GAGGT-3′ (SEQ ID NO: 48) (304 bp); and bone sialo protein, 5′-[…]-3′ (SEQ ID NO: 49) and 5′-[…]-3′ (SEQ ID NO: 50) (448 bp). A primer set amplifying glyceraldehyde-3phosphate dehydrogenase mRNA was used as a control.
The cDNAs generated from HPDL cells […] the DNA Master SYBR Green I kit and protocol and a LightCycler instrument. The relative amount of each mRNA was determined at 50% levels of PCR product, and normalized with use of the relative amount of GAPDH mRNA.

Assay [2] concerns human periodontal ligament (HPDL) cells. Nature of the assay: ALP inducing activity of HPDL cells on cell culture system. Type of assay: cell-based. An excerpt: Human periodontal ligament (HPDL) cells were obtained according to the method of Somerman et al., (1988) from healthy premolars which were extracted from the patients for orthodontic reasons. The cells were precultured for 4-6 passages with a-MEM medium to establish the primary cell line. The cells were maintained in the alpha modification of Eagle's medium (α-MEM; Life Technologies, Grand Island, N.Y., USA) containing 10% fetal bovine serum (FBS; Asahi Technoglass, Chiba, Japan) and 1% antibiotics (100 U/ml of Penicillin-G and 100 μg/ml of Streptomycin sulfate; Gibco BRL, Grand Island, N.Y., USA) at 37° C. in a humidified 5% CO2 atmosphere. The ST2 cells (Riken Cell Bank, Tsukuba, Japan), an osteoblast-like mouse bone marrow stromal cell line, were cultured under the same conditions.
HPDL cells were distributed in 96-well plates at a density of approximately 5×10^5 cells per a well and incubated for 24 h. The growth medium was then changed to contain 10 nM of 1α-25dihydroxy-Vitamin D3 (CALBIOCHEM, La Jolla, Calif.) and 50 μg/ml (final concentration) of fractionated enamel protein samples or synthesized peptides dissolved in ultrapure water. After 96 additional hours of incubation, the cells were washed once with PBS, and ALP activity was determined after a 10 min incubation at 37° C. in 10 mM p-nitrophenylphosphate (substrate) in 100 mM 2-amino-2-methyl-1,3-propanediol-HCl buffer (pH 10.0) containing 5 mM MgCl2. After adding 0.2 M NaOH, which stopped the reaction, the absorbance at 405 nm was read on a plate reader.
HPDL cells of approximately 5×10^5 cells per well were distributed in 96-well plates and incubated for 24 h. The growth medium was then changed to contain 10 nM of 1α-25dihydroxy-Vitamin D3 and 50 μg/ml (final concentration) of purified sheath protein or synthesized peptide. After 96 additional hours of incubation, ALP activity was determined using p-nitrophenylphosphate as a substrate.
The bioactivities of these synthetic peptides were tested their cytodifferentiation activity of HPDL cells and ST2 cells by determination of increasing ALP inducing activity on cell culture system. When these peptides applied in cell culture system, the concentration of their peptides was employed around 1 ng/ml. In the case of TGF-1, the concentration was 10 ng/ml.
Normal human periodontal ligament fibroblasts were maintained in an α-minimal essential medium (α-MEM) containing 10% fetal bovine serum, either with or without 10 nM 1α-25dihydroxy-vitamin D3 and 1% antibiotics (100 U/mL of penicillin G and 100 μg/mL of streptomycin sulfate) at 37° C. in a humidified atmosphere of air containing 5% CO2. Another cell line, ST2 cells, was obtained from an osteoblast-like mouse bone marrow stromal cell line. These cells were cultured in the same conditions as those described above.
The ALP inducing activities of synthetic peptides using the cell culture of HPDL cells and ST2 cells were examined. The HPDL cells were distributed in 96-well plates at a density of approximately 5×10^5 cells per well and incubated for 24 h. The medium was then changed to α-MEM containing 10 nM of 1α-25dihydroxy-vitamin D3 and either synthetic peptides or growth factors dissolved in ultra-pure water. After 96 h of incubation, the cells were washed once with phosphate-buffered saline, and 10 mM ρ-nitrophenylphosphate in 100 mM 2-amino-2-methel-1,3-propanediol-HCl buffer (pH 10.0) containing 5 mM MgCl2 was added. The ALP activity was determined after 10 min incubation at 37° C. and the absorbance at 405 nm was read using a plate reader, after adding 0.2 M NaOH to stop the reaction. […] When the synthetic peptides were applied in the cell culture system, their final concentrations were 25 or 50 μg/mL. A TGF-β1 receptor inhibitor (SB431542, 10 μM) was applied to the HPDL cell culture system to examine their influence relative to the ALP inducing activity of the synthetic peptides.

The subject of assay [3] is HPDL cells. Kind of assay: Mineralization activity of HPDL cells (alizarin red S staining, calcium content). Type of assay: cell-based, human. The method, then:
The HPDL cells were plated in 24-well plates at an initial density of 1×10^5 cells/well. After 24 h of incubation, the medium was replaced with growth medium containing 50 μM ascorbic acid, 10 mM β-glycerophosphate, and 10 nM 1α,25-dihydroxyvitamin D3 (differentiation medium) and 1 μg/ml of samples. The medium was changed every 72 h. The cells were maintained for 30 days and then the medium was discarded.
The compartments of cells were fixed in 100% methanol, stained with alizarin red S for 10 min, then washed with ultrapure water and photographed to examine the biomineralization activity. The staining solution was 1% alizarin red S (sodium alizarin sulfonate) (Sigma) dissolved in ultrapure water and adjusted to pH 6.4 with 0.1N ammonium hydroxide.
For measuring the calcium content, the compartments of cells were dissolved by 0.5N hydrochloric acid. The resulting solution was measured by a Calcium C-test kit and protocol (Wako Pure Chemical Industries Ltd, Osaka, Japan). The absorbance at 570 nm was read on a plate reader.
The HPDL cells were plated in 24-well plates at an initial density of 1×10^5 cells/well. After 24 h of incubation, the medium was replaced with growth medium containing 50 μM ascorbic acid, 10 mM β-glycerophosphate, and 10 nM 1α,25-dihydroxyvitamin D3 (differentiation medium) and 1 μg/ml of samples. The medium was changed every 72 h and the cells were maintained for 30 days. The biomineralization activity was examined by staining with alizarin red S and measuring calcium content.
The HPDL cells were plated in six-well plates at an initial density of 1×10^5 cells per well. […]
For Alizarin Red S staining, the compartments of 28 d cultured cells were fixed in 100% methanol, stained with Alizarin Red S for 10 min, then washed with ultra-pure water and photographed. […] The resulting solution was measured using a Calcium C-test kit and protocol. The absorbance at 570 nm was read with a plate reader. […]

As to “SDKPPKPELPGVDF (14 aa from 144 to 157 in sequence 11; listed as Homo sapiens) [H-2]”, the “expressions of osteopontin, osteocalcin and bone sialoprotein” value in assay [1] is recorded as “closely similar to those of TGF-β1”. Further, the “ALP inducing activity of HPDL cells (Example 4)” value in assay [2] (peptides 50 μg/mL, TGF-β1 1 ng/mL, BMP-2 1 μg/mL, 10 nM 1α-25dihydroxy-vitamin D3, 96 h) is reported as “highest ALP inducing activity”. Moreover, the “ALP activity of HPDL cells (human synthetic peptides, Example 3)” value in assay [2] (peptides around 1 ng/ml, TGF-β1 10 ng/ml) is given as “enhanced dose dependently”. Further, in assay [3] (28 d cell culture, H-2 25 μg/mL, TGF-β1 1 ng/mL), the “mineralization by HPDL cells (Example 4)” value is “induced mineralization”. The “induction of mineralization of HPDL cells (Example 3)” value in assay [3] (30 days culture, 1 μg/ml of samples, differentiation medium) is on record as “enhanced the induction of mineralization”.
